Each compound was assayed against T1, IGF-1R (Homo sapiens, UniProt P08069) (assay: IGF-1R inhibitory activity (kinase reaction, time-resolved fluoroimmunoassay)). Conditions: IGF-1R active recombinant enzyme, test compound 10 μmol/L.
T1 construct: purchased Upstate Co. 14-465
T1 sequence (P08069 959-1367 limits assumed): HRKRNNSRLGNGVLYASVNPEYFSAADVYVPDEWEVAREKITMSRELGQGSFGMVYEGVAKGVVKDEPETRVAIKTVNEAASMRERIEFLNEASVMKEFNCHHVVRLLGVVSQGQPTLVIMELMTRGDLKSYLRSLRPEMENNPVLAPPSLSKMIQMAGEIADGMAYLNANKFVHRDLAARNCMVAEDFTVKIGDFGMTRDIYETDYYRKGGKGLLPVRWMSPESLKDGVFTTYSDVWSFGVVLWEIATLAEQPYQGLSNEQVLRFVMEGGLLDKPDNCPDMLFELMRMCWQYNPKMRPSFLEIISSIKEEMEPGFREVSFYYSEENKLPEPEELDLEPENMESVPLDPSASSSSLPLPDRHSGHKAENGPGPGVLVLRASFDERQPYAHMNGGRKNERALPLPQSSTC
Format: biochemical
Procedure: The IGF-1R inhibitory activity was measured in the following manner.
As IGF-1R, active recombinant enzyme (Catalog No. 14-465) purchased from Upstate Co., was used. To 96 well plate (FIA-PLATE BLACK 96 well FALT-BOTTOM HIGH BINDING, Greiner Bio-one, Catalog No. 655077) coated with NeutroAvidin (Pierce, Catalog No. 31000), biotinylated polyglutamic acid-tyrosine peptide (Nihon Schering K.K., Catalog No. 61GT0BAA) was immobilized and then blocked with 0.25% gelatin to be used as a plate for measuring the kinase reaction. Separately was prepared a solution containing at final concentrations, IGF-1R (200 μg/L), Tris.HCl(pH 7.5)(20 mmol/L), Na3VO4(0.1 mmol/L), MgCl2(1 mmol/L), MnCl2(10 mmol/L), ATP(10 mmol/L), 2-mercaptoethanol (0.04%), BSA(Bovine Serum Albumin) (0.1%), DMSO(0.1%), test compound (10 μmol/L). The solution (each 50 μL) was added to the well of the plate for measuring the kinase reaction and then, enzyme reaction was performed for 30 minutes at 24° C. The plate was washed with TBS-T [10 mmol/L Tris Cl (pH 7.5), 150 mmol/L NaCl, 0.05% Tween 20 (Bio-Rad, Catalog No. 170-6531)] 4 times, then reacted with europium-labeled anti-phosphotyrosine antibody, further washed with TBS-T 4 times and then, measured with time-resolved fluoroimmunoassay (excitation wavelength 340 nm, measuring wavelength 615 nm). The value of a well to which the test compound had not been added was considered as 100% and that of a well where the enzyme and the test compound had not been added was considered as 0%. The relative activity (%) of the well which was added with enzyme and the test compound was measured and by subtracting the calculated value from 100, IGF-1R inhibitory activity of the test compound (%) was determined.
Work on C(=C\c1n[nH]c2ccccc12)/c1ccccc1NCc1ccccc1 [Compound 26, (E)-N-benzyl-N-{2-[2-(1H-indazol-3-yl)vinyl]phenyl}amine] yielded an inhibition at 10 µM of 67.8%. Work on O=C(Nc1ccccc1/C=C/c1n[nH]c2ccccc12)c1cc2ccccc2o1 [Compound 49, (E)-N-{2-[2-(1H-indazol-3-yl)vinyl]phenyl}benzofuran-2-carboxamide] yielded an inhibition at 10 µM of 103%. In the case of O=C(Nc1ccccc1/C=C/c1n[nH]c2ccccc12)c1cc2ccccc2[nH]1 [Compound 50, (E)-N-{2-[2-(1H-indazol-3-yl)vinyl]phenyl}-1H-indole-2-carboxamide], the inhibition at 10 µM is reported as 98.5%. With O=C(Nc1ccccc1/C=C/c1n[nH]c2ccccc12)c1ccc([N+](=O)[O-])s1 [Compound 51, (E)-N-{2-[2-(1H-indazol-3-yl)vinyl]phenyl}-5-nitrothiophene-2-carboxamide] the inhibition at 10 µM was 100%. Work on Cc1oncc1C(=O)Nc1ccccc1/C=C/c1n[nH]c2ccccc12 [Compound 72, (E)-N-{2-[2-(1H-indazol-3-yl)vinyl]phenyl}-5-methylisoxazole-4-carboxamide] yielded an inhibition at 10 µM of 82.7%. With O=C(Nc1ccccc1/C=C/c1n[nH]c2ccccc12)c1ccccc1[N+](=O)[O-] [Compound 74, (E)-N-{2-[2-(1H-indazol-3-yl)vinyl]phenyl}-2-nitrobenzamide] the inhibition at 10 µM was 97.6%. For CN(C)/C=N/c1ccccc1C=Cc1n[nH]c2ccccc12 [Compound 75, (E)-N-{2-[2-(1H-indazol-3-yl)vinyl]phenyl}-N,N-dimethylformamidine], the “inhibitory activity (%) at 10 μmol/L” value was 90.4%. O=C(Nc1ccccc1/C=C/c1n[nH]c2ccccc12)c1ccc(CO)cc1 [Compound 79, (E)-4-hydroxymethyl-N-{2-[2-(1H-indazol-3-yl)vinyl]phenyl}benzamide] was tested, and the inhibition at 10 µM was 97.2%. O=C(Nc1ccccc1/C=C/c1n[nH]c2ccccc12)c1ccc(CN2CCOCC2)cc1 [Compound 80, (E)-N-{2-[2-(1H-indazol-3-yl)vinyl]phenyl}-4-(morpholin-4-ylmethyl)benzamide] showed an inhibition at 10 µM of 96.6%. Compound COc1ccccc1/C=C/c1n[nH]c2ccccc12 [Compound 135, (E)-3-[2-(2-methoxyphenyl)vinyl]-1H-indazole] has an inhibition at 10 µM of 86.6%. O=C(Nc1nc[nH]n1)c1ccccc1/C=C/c1n[nH]c2ccccc12 [Compound 139, (E)-2-[2-(1H-indazol-3-yl)vinyl]-N-(1H-[1,2,4]triazol-3-yl)benzamide] gave an inhibition at 10 µM of 93.9%. In the case of Cc1csc(NC(=O)c2ccccc2/C=C/c2n[nH]c3ccccc23)n1 [Compound 143, (E)-2-[2-(1H-indazol-3-yl)vinyl]-N-(4-methylthiazol-2-yl)benzamide], the inhibition at 10 µM is reported as 94.9%. Work on CSc1ccccc1/C=C/c1n[nH]c2ccccc12 [Compound 146, (E)-3-[2-(2-methylsulfanylphenyl)vinyl]-1H-indazole] yielded an inhibition at 10 µM of 78.3%. For C(=C\c1cccc2nc(-c3cccs3)oc12)/c1n[nH]c2ccccc12 [Compound 149, (E)-7-[2-(1H-indazol-3-yl)vinyl]-2-(thiophen-2-yl)benzoxazole], the inhibition at 10 µM was 70%. Work on O=C1c2ccccc2C(=O)N1c1cccc(Cl)c1/C=C/c1n[nH]c2ccccc12 [Compound 154, (E)-2-{3-chloro-2-[2-(1H-indazol-3-yl)vinyl]phenyl}isoindole-1,3-dione] yielded an inhibition at 10 µM of 97.1%. In the case of C(=Cc1n[nH]c2ccccc12)c1ccccc1Nc1cnccn1 [Compound 155, N-{2-[2-(1H-indazol-3-yl)vinyl]phenyl}-2-pyrazylamine], the “inhibitory activity (%) at 10 μmol/L” value is reported as 97.9%. In the case of Cc1cc(C(=O)Nc2ccccc2/C=C/c2n[nH]c3ccccc23)ccc1[N+](=O)[O-] [Compound 157, (E)-N-{2-[2-(1H-indazol-3-yl)vinyl]phenyl}-3-methyl-4-nitrobenzamide], the inhibition at 10 µM is reported as 96%. Cc1ccsc1/C=N/c1ccccc1C=Cc1n[nH]c2ccccc12 [Compound 160, (E)-N-{2-[2-(1H-indazol-3-yl)vinyl]phenyl}(3-methylthiophen-2-ylmethylene)amine] showed an inhibition at 10 µM of 98.4%. Compound C(=C\c1n[nH]c2ccccc12)/c1ccccc1-n1cccc1 [Compound 162, (E)-3-{2-[2-(pyrrol-1-yl)phenyl]vinyl}-1H-indazole] has an inhibition at 10 µM of 102%. C(=C\c1n[nH]c2ccccc12)/c1ccccc1Nc1ncccn1 [Compound 163, (E)-N-{2-[2-(1H-indazol-3-yl)vinyl]phenyl}-2-pyrimidylamine] was tested, and the inhibition at 10 µM was 100%. C(=C\c1n[nH]c2ccccc12)/c1ccccc1Nc1ccccn1 [Compound 164, (E)-N-{2-[2-(1H-indazol-3-yl)vinyl]phenyl}-2-pyridylamine] gave an inhibition at 10 µM of 99.1%. CCOC(=O)c1cnc(Nc2ccccc2/C=C/c2n[nH]c3ccccc23)s1 [Compound 165, (E)-2-{2-[2-(1H-indazol-3-yl)vinyl]phenylamino}thiazole-5-carboxylic acid ethylester] was tested, and the inhibition at 10 µM was 93.8%. O=Cc1ccn(-c2ccccc2/C=C/c2n[nH]c3ccccc23)c1 [Compound 167, (E)-1-{2-[2-(1H-indazol-3-yl)vinyl]phenyl}-1H-pyrrole-3-carbaldehyde] showed an inhibition at 10 µM of 94.1%. For CCOC(=O)c1csc(Nc2ccccc2/C=C/c2n[nH]c3ccccc23)n1 [Compound 169, (E)-2-{2-[2-(1H-indazol-3-yl)vinyl]phenylamino}thiazole-4-carboxylic acid ethyl ester], the inhibition at 10 µM was 88.4%.

Same assay, conditions: test compound 10 μmol/L
Compound O=C(Nc1ccccc1/C=C/c1n[nH]c2ccccc12)c1ccc([N+](=O)[O-])cc1Cl [Compound 81, (E)-2-chloro-N-{2-[2-(1H-indazol-3-yl)vinyl]phenyl}-4-nitrobenzamide] has an inhibition at 10 µM of 60.7%. With CSc1ccc(C(=O)Nc2ccccc2/C=C/c2n[nH]c3ccccc23)cc1 [Compound 82, (E)-N-{2-[2-(1H-indazol-3-yl)vinyl]phenyl}-4-methylsulphanylbenzamide] the inhibition at 10 µM was 84.7%. COc1cccc(/C=C/c2n[nH]c3ccccc23)c1N [Compound 93, (E)-2-[2-(1H-indazol-3-yl)vinyl]-6-methoxyphenylamine] gave an inhibition at 10 µM of 70.6%. Compound Cc1ccsc1C(=O)Nc1cc(C(=O)NCCO)ccc1/C=C/c1n[nH]c2ccccc12 [Compound 114, (E)-N-{5-[N-(2-hydroxyethyl)carbamoyl]-2-[2-(1H-indazol-3-yl)vinyl]phenyl}-3-methylthiophene-2-carboxamide] has an inhibition at 10 µM of 92%. Work on COCc1ccc(/C=C/c2n[nH]c3ccccc23)c(NC(=O)c2sccc2C)c1 [Compound 121, (E)-N-{2-[2-(1H-indazol-3-yl)vinyl]-5-(methoxymethyl)phenyl}-3-methylthiophene-2-carboxamide] yielded an inhibition at 10 µM of 98.6%. Work on Cn1cccc1C(=O)Nc1cc(C(=O)N2CCOCC2)ccc1/C=C/c1n[nH]c2ccccc12 [Compound 123, (E)-N-{2-[2-(1H-indazol-3-yl)vinyl]-5-(morpholin-4-ylcarbonyl)phenyl}-1-methylpyrrole-2-carboxamide] yielded an inhibition at 10 µM of 95.9%. In the case of CCN(CC)C(=O)c1ccc(/C=C/c2n[nH]c3ccccc23)c(NC(=O)c2sccc2C)c1.Cl [Compound 124, (E)-N-{5-(N,N-diethylcarbamoyl)-2-[2-(1H-indazol-3-yl)vinyl]phenyl}-3-methylthiophene-2-carboxamide hydrochloride], the “inhibitory activity (%) at 10 μmol/L” value is reported as 98.9%. With Cc1ccsc1C(=O)Nc1cc(C(=O)N(C)C)ccc1/C=C/c1n[nH]c2ccccc12.Cl [Compound 125, (E)-N-{5-(N,N-dimethylcarbamoyl)-2-[2-(1H-indazol-3-yl)vinyl]phenyl}-3-methylthiophene-2-carboxamide hydrochloride] the “inhibitory activity (%) at 10 μmol/L” value was 100.9%. For Cc1ccsc1C(=O)Nc1cc(C(=O)N2CCN(C)CC2)ccc1/C=C/c1n[nH]c2ccccc12 [Compound 126, (E)-N-{2-[2-(1H-indazol-3-yl)vinyl]-5-(4-methylpiperazin-1-ylcarbonyl)phenyl}-3-methylthiophene-2-carboxamide], the inhibition at 10 µM was 98.8%. With COC1CCN(C(=O)c2ccc(/C=C/c3n[nH]c4ccccc34)c(NC(=O)c3sccc3C)c2)CC1.Cl [Compound 127, (E)-N-{2-[2-(1H-indazol-3-yl)vinyl]-5-(4-methoxypiperidin-1-ylcarbonyl)phenyl}-3-methylthiophene-2-carboxamide hydrochloride] the “inhibitory activity (%) at 10 μmol/L” value was 101.9%. In the case of Cc1ccsc1C(=O)Nc1cc(C(=O)N2CCN(C)CC2)ccc1/C=C/c1n[nH]c2ccccc12.Cl [Compound 128, (E)-N-{2-[2-(1H-indazol-3-yl)vinyl]-5-(4-methylpiperazine-1-ylcarbonyl)phenyl}-3-methylthiophene-2-carboxamide hydrochloride], the “inhibitory activity (%) at 10 μmol/L” value is reported as 98.8%. Cc1ccsc1C(=O)Nc1cc(C(=O)N2CCC3(CC2)OCCO3)ccc1/C=C/c1n[nH]c2ccccc12.Cl [Compound 129, (E)-N-{5-(1,4-dioxa-8-azaspiro[4,5]decane-8-carbonyl)-2-[2-(1H-indazol-3-yl)vinyl]phenyl}-3-methylthiophene-2-carboxamide hydrochloride] was tested, and the “inhibitory activity (%) at 10 μmol/L” value was 99.9%.
